Source: US12560609B2, “Biomarkers predictive of cancer cell response to ML329 or a derivative thereof” (Dana-Farber Cancer Institute, Inc., priority 2018, dated 2026)
Each block holds one compound with its values, some of them ahead of it.

Tests used:
CK2 [1] = molecular target: CK2 (Homo sapiens, UniProt P68400); experiment: CK2 activity in vitro, with or without Nqo1; type: biochemical; conditions: for requirement of Nqo1 for inhibition of CK2 in vitro: FIG. 24E, 24F
CK2 [2] = molecular target: T1, CK2 (Homo sapiens, UniProt P19784+P68400); experiment: SAR of ML329 derivatives: NQO1-dependent CK2 inhibitors; type: cell-based; conditions: FIG. 21
T1 construct: endogenous in cells

[3] = tested on: KEAP1-mutant lung cancer cells; experiment: Sensitivity of wild-type and KEAP1-mutated lung cancer cell lines to ML329; type: cell-based; conditions: sensitive cell lines had IC50<10 μM (FIG. 35B)
Description: ML329 (4-[(1,4-dioxo-1,4-dihydronapthalen-2-yl)amino]benzenesulfonamide; […]) is a small molecule that was initially identified as an inhibitor of microphthalmia-associated transcription factor (MITF) (FIGS. 1-6). Briefly, Sk-MEL-5 melanoma cells expressing the promoter of MITF target TRPM1, upstreatm of a luciferase gene, were screened with a library of 331,578 compounds. Secondary screening was performed in two MITF-dependent melanoma cell links (SK-MEL-5 and MALME) and one non-MITF dependent cell line (A375). Candidate hits were tested for their effects on MITF target genes by qPCR. BRD-K45681478 was prioritized for medicinal chemistry. The lead compounds ML329 was used in subsequent studies. […] CK2 is an essential kinase and its reduction/inhibition is lethal (FIG. 11 and FIG. 12). Experiments were performed to determine that ML329 is bioreduced by an enzyme called NQO1, which is preferentially expressed in some cancer types, especially melanoma (FIGS. 13-15). Since ML329 is converted by cancer cells into an active form, it can avoid effects on normal cells. NQO1 is necessary and sufficient for the activity of ML329, thus enabling targeting of CK2 specifically to cancers with high NQO1 expression (FIGS. 16-18). […] Greater than 90% of KEAP1-mutant lung cancers were determined to be sensitive to ML329 (FIG. 20).

[4] = tested on: CK2alpha and CK2alpha prime; experiment: Target identification: bead pull-down from SK-MEL-5 lysate with ML329 competition, mass spectrometry; type: binding
Description: Whole protein lysates were generated from SK-MEL-5 melanoma cells and mixed with either KUC114363 (a derivative of ML329 conjugated to agarose beads) or KUC114363 along with competing amounts of soluble ML329. Mass spectrometry was used to identify proteins that bound KUC114363 whose binding was diminished upon treatment with ML329. […] Kinases found to bound are marked with red circles, where larger circles indicate higher-affinity binding. KINOMEScan image was generated using TREEspot™ Software Tool and reprinted with permission from KINOMEscan®, a division of DiscoveRx Corporation, © DISCOVERX CORPORATION 2010.

Nqo1 = Nqo1 (Homo sapiens, UniProt P15559); experiment: Reduction of ML329 by Nqo1 in vitro; type: biochemical; conditions: FIG. 24D
WM266.4 cells = experiment: WM266.4 melanoma xenograft, tumor volume; type: in vivo; conditions: NSG mice xenografted with WM266.4 cells; 10 mg/kg twice daily
MITF = experiment: qPCR of MITF mRNA and MITF target genes; type: cell-based; conditions: FIG. 22
Description: FIG. 26A-FIG. 26H show the results of a small molecule screen to identify regulators of lineage-specific melanoma oncogene MITF. […] SK-MEL-5 cells stably expressing the TRPM1 promoter fused to the luciferase gene were screened with 331,578 compounds. Secondary screens of putative hits including evaluating cytotoxicity in 2 MITF-dependent cell lines (SK-MEL-5, MALME) and 1 MITF-independent cell line (A375M) and evaluation the effect of candidate hits on the mRNA of MITF and target genes. […] BRD-K45681478 was the lead hit, which was modified by structure-function analysis to generate the compound ML329. FIG. 26B show cell number after 48 h treatment of melanoma cell lines (red) compared to non-melanoma cell lines (black) with ML329. […] MITF-dependent cell lines are depicted in green, whereas the MITF-independent cell line is depicted in red.
ML329 (4-[(1,4-dioxo-1,4-dihydronapthalen-2-yl)amino]benzenesulfonamide; KUC114363) is a small molecule that was initially identified as an inhibitor of microphthalmia-associated transcription factor (MITF) (FIGS. 1-6). Briefly, Sk-MEL-5 melanoma cells expressing the promoter of MITF target TRPM1, upstreatm of a luciferase gene, were screened with a library of 331,578 compounds. […] Greater than 90% of KEAP1-mutant lung cancers were determined to be sensitive to ML329 (FIG. 20).

489 cancer cell lines = experiment: PRISM viability screen of 489 cancer cell lines; type: cell-based; conditions: 489 cell lines, FIG. 30
Description: Negative odds are associated with sensitivity to ML329 whereas positive odds are associated with insensitivity to ML329.
Strictly Standardized Mean Difference (SSMD) was determined for each cell line. Cell lines with SSMD<2 were filtered out. All cell lines tested had SSMD>2.

T1 sequence (P68400 whole entry): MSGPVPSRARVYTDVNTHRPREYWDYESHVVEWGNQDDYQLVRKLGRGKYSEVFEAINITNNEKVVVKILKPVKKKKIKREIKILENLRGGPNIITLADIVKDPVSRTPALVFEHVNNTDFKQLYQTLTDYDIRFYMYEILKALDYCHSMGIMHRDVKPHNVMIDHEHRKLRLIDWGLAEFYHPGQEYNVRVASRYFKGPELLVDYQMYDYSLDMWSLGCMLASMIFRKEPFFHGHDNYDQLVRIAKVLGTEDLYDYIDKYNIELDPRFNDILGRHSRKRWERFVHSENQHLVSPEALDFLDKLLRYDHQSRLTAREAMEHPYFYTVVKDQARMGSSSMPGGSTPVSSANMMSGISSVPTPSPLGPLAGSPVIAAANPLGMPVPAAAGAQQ
T1 sequence (P19784 whole entry): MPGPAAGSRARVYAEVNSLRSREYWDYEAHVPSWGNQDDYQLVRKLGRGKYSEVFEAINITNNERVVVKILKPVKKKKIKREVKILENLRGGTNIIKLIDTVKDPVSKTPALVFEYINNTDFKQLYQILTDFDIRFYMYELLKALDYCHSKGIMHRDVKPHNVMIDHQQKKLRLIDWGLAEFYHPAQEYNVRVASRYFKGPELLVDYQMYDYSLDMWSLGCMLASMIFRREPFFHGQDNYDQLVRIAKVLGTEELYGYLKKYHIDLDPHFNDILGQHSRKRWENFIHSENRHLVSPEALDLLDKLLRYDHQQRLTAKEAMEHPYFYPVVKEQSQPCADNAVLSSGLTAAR
T1 sequence (P67870 whole entry partner): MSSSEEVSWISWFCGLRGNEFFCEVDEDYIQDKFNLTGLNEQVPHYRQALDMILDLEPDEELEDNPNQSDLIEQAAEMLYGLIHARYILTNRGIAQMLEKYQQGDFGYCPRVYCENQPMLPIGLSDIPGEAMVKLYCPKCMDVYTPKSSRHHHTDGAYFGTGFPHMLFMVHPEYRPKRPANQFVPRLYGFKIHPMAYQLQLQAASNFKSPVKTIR
CK2 (Homo sapiens, UniProt P68400), sequence (P68400 whole entry): as the sequence (P68400 whole entry) above
Nqo1, sequence (P15559 whole entry, species assumed): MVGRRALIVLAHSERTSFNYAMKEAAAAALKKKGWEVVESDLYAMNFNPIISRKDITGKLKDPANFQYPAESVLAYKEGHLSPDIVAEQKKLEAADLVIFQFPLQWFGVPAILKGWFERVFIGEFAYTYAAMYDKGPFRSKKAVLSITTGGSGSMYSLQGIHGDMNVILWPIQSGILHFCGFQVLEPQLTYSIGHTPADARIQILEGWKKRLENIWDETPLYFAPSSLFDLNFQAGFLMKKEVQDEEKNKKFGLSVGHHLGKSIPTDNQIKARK

requirement of Nqo1 for inhibition of CK2 in vitro (CK2 [1]): Nqo1 is not required
Compound: O=C(O)c1ccc2c(c1)nc(Nc1cccc(Cl)c1)c1ccncc12 [CX4945, 5-[(3-Chlorophenyl)amino]benzo[c]-2,6-naphthyridine-8-carboxylic acid, reference compound]
potency and selectivity as NQO1-dependent CK2 inhibitor (SAR, relative to ML329) (CK2 [2]): more potent and selective NQO1-dependent CK2 inhibitors

binding to CK2 subunits in vitro [4]: binds to CK2alpha and CK2alpha prime
requirement of Nqo1 for inhibition of CK2 in vitro (CK2 [1]): Nqo1 is required
substrate of Nqo1 in vitro (Nqo1): direct substrate of Nqo1 in vitro
Compound: NS(=O)(=O)c1ccc(NC2=CC(=O)c3ccccc3C2=O)cc1 [ML329, 4-[(1,4-dioxo-1,4-dihydronapthalen-2-yl)amino]benzenesulfonamide]
share of KEAP1-mutant lung cancers sensitive to ML329 [3]: Greater than 90%
inhibition of CK2 activity (CK2 [1]; in vitro): inhibits CK2 activity in an ATP-competitive manner
in vivo activity in melanoma (tumor volume) (WM266.4 cells): has in vivo activity in melanoma that requires NRF2/NQO1
effect on MITF mRNA and target gene expression (MITF): suppresses MITF mRNA and target gene expression
selectivity of cytotoxicity across cancer cell lines (489 cancer cell lines): selectively cytotoxic in melanoma cells

Compound: NS(=O)(=O)c1cccc(NC2=CC(=O)c3ccccc3C2=O)c1 [SCAP105461]
potency and selectivity as NQO1-dependent CK2 inhibitor (SAR, relative to ML329) (CK2 [2]): more potent and selective NQO1-dependent CK2 inhibitors

Compound: NC(=O)c1ccc(NC2=CC(=O)c3ccccc3C2=O)cc1 [SCAP105463]
potency and selectivity as NQO1-dependent CK2 inhibitor (SAR, relative to ML329) (CK2 [2]): more potent and selective NQO1-dependent CK2 inhibitors
